System: patients suffering from ischemic heart disease
Experiment: clinical test in patients with ischemic heart disease
Format: in vivo, human patients
Method: There were studied 84 patients aged 29 to 77 (46 men and 38 women) suffering from ischemic heart disease.
The patients with ischemic heart disease were classified by stages: stage 1-18 persons, stage 2-40 persons, stage […] (according to L. I. Fogelson, 1972). In 46 patients there was the attendant hypertonic disease of the second stage.
The remoteness of the disease was varied from 6 months to 22 years. The preparation was administered perorally in doses of 0.6-0.9 g 3-4 times a day. The daily dose is 1.8-3.6 g. The treatment course was 7 to 60 days; after a 5-7 days' interval the treatment was resumed depending on its efficiency so that the total course duration was up to 6 months. The effectiveness of the treatment was evaluated by the dynamics of complaints, clinic chart, objective data of pulse and arterial pressure, electrocardiographic and biochemical characteristics.

[1] = patients with attendant hypertonic disease

CN1C(=O)N(C)C2C1N(C)C(=O)N2C (stereo not shown) [the preparation, 2,4,6,8-tetramethyl-2,4,6,8-tetraazobicyclo-/3,3,0/-octanedione-3,7]
potassium in plasma (after treatment, before 3.82±0.16): 3.45±0.08 mequiv/l | number of erythrocytes (after treatment, before 4.6±0.3): 5.3±0.3 mln in mm^3 | content of total protein (after treatment, before 7.73±0.1%): 8.65±0.25% | content of lymphocytes (after treatment, before 26.9±1.2%): 31.0±2.8% | potassium in erythrocytes (after treatment, before 65.7±5.7): 80.2±5.2 mequiv/l | hemoglobin (after treatment, before 82.7±2.6%): 86.3±3.2% | cholesterol (after treatment, before 294.0±16.4%): 245±15.0 mg % | leucocytes (after treatment, before 5,520±499): 6,080±221 in mm^3 | content of prothrombin (during the treatment course): not changed | content of sodium in erythrocytes and plasma (human, in vivo): not substantially changed | contraindications (human, in vivo): No contraindications against the administration of the preparation have been revealed | patients with good therapeutic effect (human, in vivo): 77 % of the patients | remaining fractions of proteinogram (human, in vivo): insignificant opposite-sign variations | side effects (human, in vivo): Side effects are absent | day at which amelioration of the condition was observed [1]: 2 to 5 days | pulse [1]: pulse normalization | minimal arterial pressure (patients with attendant hypertonic disease, after treatment, before 102.2±1.2): 89.7±4.0 mm Hg | maximum arterial pressure (patients with attendant hypertonic disease, after treatment, before 180.8±3.9): 161.4±3.8 mm Hg | electrogram (perorally 1.8-3.6 g daily): rhythm normalization | frequency and intensity of stenocardia attacks (perorally 1.8-3.6 g daily): reduced | metabolic processes (perorally 1.8-3.6 g daily): amelioration of metabolic processes | gamaglobulins (proteinogram, after treatment, before 19.87±1.83%): 22.54±2.31%
